Values of other authors in patent US20070104896A1, “Optical film, polarizing plate and image display device” (FUJIFILM Corporation, priority 2005, published 2007).

Conditions: pKa of a conjugated acid of the organic base; values in an aqueous solution

| pKa | Structure (SMILES) |
| --- | --- |
| 5.9 | Cc1ccnc2c1ccc1c(C)ccnc12 [b-6, 4,7-Dimethyl-1,10-phenanthroline] |
| 5.9 | Cc1ccc2ccc3ccc(C)nc3c2n1 [b-5, 2,9-Dimethyl-1,10-phenanthroline] |
| 8.9 | COCCNCCOC [b-15, Bis(2-methoxyethyl)amine] |
| 7.6 | Cc1ncc[nH]1 [b-12, 2-Methyl imidazole] |
| 7.8 | CN1CCOCC1 [b-14, N-Methylmorpholine] |
| 7.0 | Cc1cccc(C)n1 [b-10, 2,6-Dimethylpyridine] |
| 9.9 | CN(C)C [b-18, Trimethylamine] |
| 7.7 | CCN1CCOCC1 [b-13, N-Ethylmorpholine] |
| 6.5 | CN(C)c1cccnc1 [b-9, 3-(N,N-Dimethylamino)pyridine] |
| 6.1 | Cc1ccncc1 [b-8, 4-Methylpyridine] |

| Structure (SMILES) | pKa |
| --- | --- |
| Cc1ccccn1 [b-7, 2-Methylpyridine] | 6.1 |
| CN(C)CCO [b-17, N,N-Dimethyl-2-aminoethanol] | 9.5 |
